PubChem BioAssay (NCI)
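In this assay, cells in 96-well plates receive the compound at five concentrations for 48 hours. Endpoints are linearly interpolated between the surrounding concentrations. GI50 = concentration required for 50% inhibition of growth. At the TGI there is no net growth.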

Key:
Experiment in all cases: inhibition of tumour cell growth, NCI panel, 48 h
HOP-18 NSCLC = system: HOP-18 NSCLC
DLD-1 colon = system: DLD-1 colon
MCF7 breast = system: MCF7 breast
NCI/ADR-RES ovarian = system: NCI/ADR-RES ovarian
DMS 273 small cell lung = system: DMS 273 small cell lung
SNB-78 CNS = system: SNB-78 CNS
DMS 114 small cell lung = system: DMS 114 small cell lung
TK-10 renal = system: TK-10 renal
SR leukemia = system: SR leukemia
PC-3 prostate = system: PC-3 prostate
MDA-MB-435 = system: MDA-MB-435
DU-145 prostate = system: DU-145 prostate

| SMILES | TGI (HOP-18 NSCLC) | TGI (DLD-1 colon) | TGI (MCF7 breast) | TGI (NCI/ADR-RES ovarian) | TGI (DMS 273 small cell lung) | TGI (SNB-78 CNS) | TGI (DMS 114 small cell lung) | TGI (TK-10 renal) | TGI (SR leukemia) | TGI (PC-3 prostate) | TGI (MDA-MB-435) | TGI (DU-145 prostate) | GI50 (TK-10 renal) | GI50 (MCF7 breast) | GI50 (NCI/ADR-RES ovarian) | GI50 (PC-3 prostate) | GI50 (MDA-MB-435) | GI50 (DU-145 prostate) | GI50 (SR leukemia) |
| --- | --- | --- | --- | --- | --- | --- | --- | --- | --- | --- | --- | --- | --- | --- | --- | --- | --- | --- | --- |
| CC(C)=CCC/C(C)=C/CCC1(C)C=Cc2c(c3ccccc3oc2=O)O1 (configuration not stated) | 32.6 µM | 28.5 µM | 30.5 µM | 31.1 µM | 32 µM | > 92.8 µM | 29.8 µM |  |  |  |  |  |  |  |  |  |  |  |  |
| c1ccc2cc3c(cc2c1)OP1(Oc2cccc4cccnc24)(O3)Oc2cc3ccccc3cc2O1 | 56.3 µM | > 100 µM | > 100 µM | 19.2 µM | 12.4 µM | > 100 µM | > 23 µM |  |  |  |  |  |  |  |  |  |  |  |  |
| OC1COC(OCc2ccccc2)C(O)C1O (configuration not stated) |  |  | > 100 µM | > 100 µM |  |  |  | > 100 µM | > 100 µM | > 100 µM | > 100 µM | > 100 µM |  |  |  |  |  |  |  |
| O=C(O)C12CC3CC(C1)C2C=C3P(=O)(O)O (configuration not stated) |  | > 100 µM |  |  | > 100 µM |  | > 100 µM | > 100 µM |  |  |  |  |  |  |  |  |  |  |  |
| CC1SC(c2ccc(Cl)cc2)N(CCc2cccs2)C1=O (configuration not stated) |  |  | 6.23 µM | 3.2 µM |  |  |  | 3.4 µM |  | 5.07 µM | 3.06 µM | 4.87 µM | 1680 nM | 2110 nM | 1390 nM | 1750 nM | 1510 nM | 1830 nM |  |
| COCCOCOC(C)(C)[C@H](CCO)O[Si](c1ccccc1)(c1ccccc1)C(C)(C)C | 31.9 µM | 22.4 µM |  |  |  | 35.1 µM |  | 23 µM | 16.3 µM |  |  |  |  |  |  |  |  |  |  |
| Cc1cccc(CNc2ncnc3[nH]ncc23)c1 |  |  | > 100 µM | > 100 µM |  |  |  | > 100 µM | > 100 µM | > 100 µM | > 100 µM | > 100 µM |  |  |  |  |  |  |  |
| C=CCNC(=O)CN(CC(=O)OC)C1CCCCC1N(CC(=O)OC)CC(=O)OC (configuration not stated) |  |  | > 100 µM | > 100 µM |  |  |  | > 100 µM |  | > 100 µM | > 100 µM | > 100 µM |  |  |  |  |  |  |  |
| O=C1c2ccccc2C(=O)c2c1cc1c(c2[N+](=O)[O-])OCO1 |  |  | 7.29 µM | 8.87 µM |  |  |  | 6.39 µM | 1.55 µM | 4.66 µM | 9.58 µM | 8.43 µM | 2380 nM | 1000 nM | 1150 nM | 1290 nM | 2910 nM | 2580 nM | 242 nM |
| Cc1cn(C2CC(O)C(Cn3nncc3Cn3ncc(=O)[nH]c3=O)O2)c(=O)[nH]c1=O (configuration not stated) |  |  | > 100 µM | > 100 µM |  |  |  | > 100 µM |  | > 100 µM | > 100 µM | > 100 µM |  |  |  |  |  |  |  |
| Nc1n[nH]c(CCCCCCCc2nc(N)n[nH]2)n1 |  | > 100 µM |  |  |  | > 100 µM | > 100 µM | > 100 µM | > 100 µM |  |  |  |  |  |  |  |  |  |  |
| COc1cc(C(=O)C2CC3(CCC2(O)c2cc(OC)c(OC)c(OC)c2)CC(=O)Nc2ccccc2C3=O)cc(OC)c1OC (configuration not stated) |  |  | > 100 µM | > 100 µM |  |  |  | > 100 µM | > 100 µM | > 100 µM | > 100 µM | > 100 µM |  |  |  |  |  |  |  |
| COc1cc(/C=C/C2=C(C#N)C(=O)OC2(C)C)ccc1O | > 100 µM | > 100 µM |  |  | > 100 µM | > 100 µM |  | > 100 µM | 67.3 µM |  |  |  |  |  |  |  |  |  |  |
| Cc1c(C2=NN=C(N=Nc3c(O)cccc3O)/C2=C/c2ccccc2)c(=O)n(-c2ccccc2)n1C | > 100 µM | > 100 µM | > 100 µM | > 100 µM | > 100 µM | > 100 µM | > 100 µM |  |  |  |  |  |  |  |  |  |  |  |  |
| CC(C)=CC(=O)OC1C2C(C)=CC(O)C(O)C2(C)C2C3(O)OCC24C(CC(=O)OC14)C(C)C3O (configuration not stated) | 7.58 µM | 0.485 µM | 0.107 µM | 123 µM | 0.101 µM | 1.11 µM | 0.0567 µM |  |  |  |  |  |  |  |  |  |  |  |  |
